According to ChEMBL document CHEMBL1201862, “PubChem BioAssay data set” (2004):
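48-hour exposure; five concentrations; linearly interpolated endpoints. GI50 = concentration required for 50% inhibition of growth.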 Calls of active or inactive are those of the source. No stated cut-off is given here; in the data, active = GI50 up to about 1.1 µM and inactive = higher.

Key:
Experiment in all cases: NCI anticancer screen, dose series, 48 h
[1] = test system: SF-268
[2] = test system: NCI-H226
[3] = test system: SK-MEL-5
[4] = test system: HCT-15
[5] = test system: HOP-92
[6] = test system: BT-549
[7] = test system: MOLT-4
[8] = test system: MCF7
[9] = test system: OVCAR-5
[10] = test system: EKVX
[11] = test system: SNB-19
[12] = test system: MDA-N
[13] = test system: A549
[14] = test system: SK-MEL-28
[15] = test system: HT-29
[16] = test system: U-251
[17] = test system: UACC-257
[18] = test system: SNB-75
[19] = test system: HCC 2998
[20] = test system: Hs-578T

Measured: GI50

N#CC(O)CCOCc1ccccc1 (stereo unspecified)
52.4 µM: [4]
inactive: [1] 5.56 µM | [2] > 100 µM | [3] > 100 µM | [5] 65.2 µM | [6] > 100 µM | [7] 3.39 µM | [8] 41.6 µM | [9] > 100 µM | [10] > 100 µM | [11] > 100 µM | [12] 86.7 µM | [13] > 100 µM | [14] > 100 µM | [15] 38.6 µM | [16] > 100 µM | [17] > 100 µM

FC1CCN(C2(c3cccs3)CCCCC2)CC1
> 100 µM: [4]
inactive: [2] > 100 µM | [3] > 100 µM | [5] 62.8 µM | [6] > 100 µM | [7] > 100 µM | [18] > 100 µM | [19] 27.2 µM | [8] > 100 µM | [9] > 100 µM | [10] > 100 µM | [11] > 100 µM | [12] > 100 µM | [13] > 100 µM | [14] > 100 µM | [15] 47.8 µM | [16] > 100 µM | [17] 60.4 µM

Cc1ccc2c(=O)c(C(=O)Nn3c(C)csc3=S)c[nH]c2n1
> 100 µM: [4]
inactive: [1] > 100 µM | [2] 83 µM | [3] > 100 µM | [6] > 100 µM | [7] > 100 µM | [8] > 100 µM | [9] > 100 µM | [20] > 100 µM | [10] > 100 µM | [11] > 100 µM | [12] > 100 µM | [13] > 100 µM | [14] > 100 µM | [15] > 100 µM | [16] > 100 µM | [17] > 100 µM

COC(=O)[C@@]1(Cc2ccc(OC(C)=O)cc2)Cc2cc3ccccc3n2N1
53.5 µM: [4]
inactive: [1] 60.4 µM | [2] 63.4 µM | [3] 18.2 µM | [5] 75 µM | [6] 28.2 µM | [7] 26.8 µM | [8] 29.9 µM | [9] 94.4 µM | [20] 82.8 µM | [10] 23.8 µM | [11] 93.8 µM | [12] 26.5 µM | [13] 47.2 µM | [14] 54.6 µM | [15] 36 µM | [16] 30.1 µM | [17] 17.3 µM

Cc1[nH]c2c(c1Cc1ccccc1)C1=NC=C(O)NN1C=N2
45.3 µM: [4]
inactive: [1] 94.2 µM | [2] > 100 µM | [3] 70 µM | [6] 49 µM | [7] 29 µM | [18] 10.3 µM | [19] 53.8 µM | [8] 14.9 µM | [9] > 100 µM | [20] 67.5 µM | [10] > 100 µM | [11] > 100 µM | [12] > 100 µM | [13] > 100 µM | [14] > 100 µM | [15] 80 µM | [16] 70.1 µM | [17] > 100 µM

CC1(C)OC[C@@H](O)[C@H](Br)CO1
inactive: [1] 53.8 µM | [2] > 100 µM | [6] > 100 µM | [7] 65.8 µM | [18] > 100 µM | [19] > 100 µM | [8] > 100 µM | [9] > 100 µM | [20] 68.2 µM | [10] > 100 µM | [11] > 100 µM | [12] > 100 µM | [14] > 100 µM | [15] > 100 µM | [16] > 100 µM | [17] > 100 µM
> 100 µM: [4]

CONC(C)=O
inactive: [1] > 100 µM | [2] > 100 µM | [3] > 100 µM | [6] > 100 µM | [7] > 100 µM | [18] > 100 µM | [19] > 100 µM | [8] > 100 µM | [9] > 100 µM | [20] > 100 µM | [10] > 100 µM | [11] > 100 µM | [12] > 100 µM | [13] > 100 µM | [14] > 100 µM | [15] > 100 µM | [16] > 100 µM | [17] > 100 µM
> 100 µM: [4]

C[C@@H](CO)C1=C(O)C(=O)c2c(ccc3c2CCCC3(C)C)C1=O
inactive: [1] 32.2 µM | [2] 28.2 µM | [3] 30.5 µM | [5] 21.2 µM | [6] 37.1 µM | [7] 42.1 µM | [18] 40 µM | [9] 36.6 µM | [20] 51.2 µM | [10] 33.5 µM | [11] 25.7 µM | [12] 45.1 µM | [13] 32.1 µM | [14] 30.8 µM | [15] 35.5 µM | [16] 14.1 µM | [17] 32.1 µM
29 µM: [4]

O=C1/C(=N/N=C(c2ccccc2)c2ccccc2)c2ccccc2-c2ccccc21
inactive: [1] > 100 µM | [2] 38.5 µM | [3] 99.5 µM | [5] 25.2 µM | [6] 65 µM | [7] 22.5 µM | [18] > 100 µM | [8] > 100 µM | [9] > 100 µM | [20] 29.6 µM | [10] > 100 µM | [11] > 100 µM | [13] > 100 µM | [14] > 100 µM | [15] > 100 µM | [16] 85.7 µM | [17] > 100 µM
37.8 µM: [4]

COc1ccccc1-c1nc(O)c2ccccc2n1
inactive: [1] > 100 µM | [2] 68.1 µM | [3] > 100 µM | [6] > 100 µM | [7] > 100 µM | [18] > 100 µM | [19] > 100 µM | [8] > 100 µM | [9] > 100 µM | [20] > 100 µM | [10] 59.6 µM | [11] > 100 µM | [12] > 100 µM | [13] > 100 µM | [16] > 100 µM | [17] > 100 µM
> 100 µM: [4]

CC1(C)CC(=O)C2(CC(CSc3ccccc3)C(CS(=O)(=O)c3ccccc3)C2)C(=O)C1 (stereo unspecified)
inactive: [1] > 100 µM | [2] > 100 µM | [3] > 100 µM | [5] > 100 µM | [6] > 100 µM | [7] > 100 µM | [18] 4.85 µM | [19] > 100 µM | [8] > 100 µM | [9] > 100 µM | [20] > 100 µM | [10] > 100 µM | [11] > 100 µM | [13] > 100 µM | [14] > 100 µM | [15] 78.3 µM | [16] > 100 µM | [17] > 100 µM
> 100 µM: [4]

CCOc1ccc(NC(=O)C(=O)C2C(=O)Nc3ccccc3[S+]2[O-])cc1 (stereo unspecified)
> 100 µM: [4]
inactive: [1] > 100 µM | [2] > 100 µM | [3] > 100 µM | [5] > 100 µM | [6] > 100 µM | [18] 95.1 µM | [8] > 100 µM | [9] > 100 µM | [20] > 100 µM | [10] 85.9 µM | [12] > 100 µM | [13] > 100 µM | [14] > 100 µM | [15] > 100 µM | [16] > 100 µM | [17] > 100 µM

Nc1c(C(=O)c2ccc(Cl)cc2)[nH]c(Nc2ccc(Cl)cc2)c1C(=S)Nc1ccccc1
4.01 µM: [4]
inactive: [1] 4.22 µM | [2] 3.64 µM | [5] 5.21 µM | [6] 2.93 µM | [7] 9.44 µM | [18] 3 µM | [19] 2.74 µM | [8] 4.41 µM | [9] 11.8 µM | [10] 4.9 µM | [11] 4.36 µM | [12] 6.76 µM | [13] 3.21 µM | [14] 4.27 µM | [15] 4.99 µM | [16] 2.97 µM | [17] 11.2 µM

COc1c(-c2nc3ccc(N4CCN(C)CC4)nc3[nH]2)cc(OC)c2c1nc(CCl)n2C
inactive: [1] 22.4 µM | [2] 19.9 µM | [5] 22.8 µM | [6] 18.6 µM | [7] 18.1 µM | [18] 12.6 µM | [19] 15.7 µM | [9] 21.6 µM | [20] 32.9 µM | [10] 19.4 µM | [11] 28.2 µM | [12] 30.5 µM | [13] 27.8 µM | [14] 26.9 µM | [15] 16.3 µM | [16] 12.2 µM | [17] 22.6 µM
26.3 µM: [4]

O=C(CSCC(=O)N/N=C/c1ccccc1)N/N=C\c1ccccc1
inactive: [1] > 100 µM | [2] > 100 µM | [3] > 100 µM | [5] > 100 µM | [6] 2.2 µM | [7] 68.2 µM | [18] > 100 µM | [8] > 100 µM | [9] > 100 µM | [20] > 100 µM | [10] > 100 µM | [11] > 100 µM | [13] > 100 µM | [14] > 100 µM | [15] > 100 µM | [16] > 100 µM | [17] > 100 µM
> 100 µM: [4]

Clc1ccc(C2=CCN3CC=C(c4ccc(Cl)cc4)C23)cc1
inactive: [1] 7.96 µM | [2] 24 µM | [3] 2.47 µM | [6] 11.6 µM | [7] 5.28 µM | [19] 3.06 µM | [8] 13.9 µM | [9] 3.78 µM | [20] 13.5 µM | [10] 15.3 µM | [11] 14.5 µM | [12] 10.8 µM | [13] 14.2 µM | [14] 13.9 µM | [15] 5.21 µM | [16] 11 µM | [17] 11.8 µM
11.1 µM: [4]
